Results published in ChEMBL document CHEMBL1212693, “Dorsomorphin inhibits BMP signals required for embryogenesis and iron metabolism” (Nat Chem Biol, 2008).
Activity calls are given as the source filed them. No cut-off for these calls is given here.

Assays:
[1] = species on record: Danio rerio; assay: Inhibition of AMPK in zebrafish assessed as embryonic axis dorsalization at 400 uM treated at 3 hrs post-fertilization measured at 48 hrs; parameters: scale not given: the % may be the effect or the level left
[2] = species on record: Danio rerio; assay: Inhibition of AMPK in zebrafish assessed as embryonic axis dorsalization at 200 uM treated at 3 hrs post-fertilization measured at 48 hrs; parameters: scale not given: the % may be the effect or the level left
[3] = species on record: Danio rerio; assay: Inhibition of AMPK in zebrafish assessed as embryonic axis dorsalization at 100 uM treated at 3 hrs post-fertilization measured at 48 hrs; parameters: scale not given: the % may be the effect or the level left
[4] = species on record: Danio rerio; assay: Inhibition of AMPK in zebrafish assessed as embryonic axis dorsalization at 40 uM treated at 3 hrs post-fertilization measured at 48 hrs; parameters: scale not given: the % may be the effect or the level left
[5] = species on record: Danio rerio; assay: Inhibition of AMPK in zebrafish assessed as embryonic axis dorsalization at 20 uM treated at 3 hrs post-fertilization measured at 48 hrs; parameters: scale not given: the % may be the effect or the level left
[6] = species on record: Danio rerio; assay: Inhibition of AMPK in zebrafish assessed as embryonic axis dorsalization at 4 uM treated at 3 hrs post-fertilization measured at 48 hrs; parameters: scale not given: the % may be the effect or the level left
[7] = species on record: Danio rerio; assay: Toxicity in zebrafish assessed as survivability at 4 to 400 uM treated at 3 hrs post-fertilization measured at 48 hrs; format: organism-based; details: in vivo
[8] = system: Hep 3B2; assay: Inhibition of hepcidin mRNA expression in human Hep3B cells at 250 uM after 30 mins by qRT-PCR analysis; format: functional; details: 0.5 h
[9] = molecular target: AMP-activated protein kinase, AMPK (Homo sapiens) (UniProt P54646+O43741+P54619+Q9UGJ0+Q9Y478+Q13131+Q9UGI9); assay: Inhibition of AMPK-mediated hepcidin mRNA expression in BMP2-stimulated human Hep3B cells at 250 uM treated 30 mins before BMP2 challenge measured after 16 hrs by qRT-PCR analysis; format: cell-based; details: Hep 3B2

Activity [1] [%] | Activity [2] [%] | Activity [3] [%] | Activity [4] [%] | Activity [5] [%] | Activity [6] [%] | inhibition [9] | SMILES | Activity [7] | inhibition at 250 µM [8] [%]
0 | 0 | 0 | 0 | 0 | 0 | – | C=C1C(=O)O[C@H](CCCCCCCC)[C@H]1C(=O)O | Toxic | –
– | – | – | – | – | – | inactive | Nc1ncnc2c1ncn2[C@@H]1O[C@H](CO)[C@@H](O)[C@@H]1O [VIDARABINE] | – | 40
